In brackets after ≈: the same amount, converted by molar mass.
Key:
[1] = tested on: Candida paratropicalis A25825; experiment: In vitro antifungal activity, serial agar dilution method (Table 1a); type: cell-based; details: YM agar (pH 7.0, Difco); 30°C for 2 days (yeast) or 4 days (filamentous fungi); read-out: MICs, Candida paratropicalis A25825
Experimental: (§1) The inoculum size was adjusted to 10⁶ cells/ml, and a volume of approximately 0.003 ml of fungal suspension was applied to the surface of the antibiotic containing agar plates with a multiinoculator. After incubation, the lowest concentration of antibiotic causing virtually complete inhibition of fungal growth was determined as the minimum inhibitory concentration (MIC).

[2] = tested on: Microsporum canis WW10218; experiment: as above; type: cell-based; details: WW10218, YM agar (pH 7.0, Difco), 30°C for 2 days (yeast) or 4 days (filamentous fungi), read-out: MICs, Microsporum canis WW10218
Experimental: as §1

[3] = tested on: Candida pseudotropicalis A25802; experiment: as above; type: cell-based; details: Kluyveromyces marxianus, YM agar (pH 7.0, Difco), 30°C for 2 days (yeast) or 4 days (filamentous fungi), read-out: MICs, Candida pseudotropicalis A25802
Experimental: as §1

[4] = tested on: Saccharomyces cerevisiae A25803; experiment: as above; type: cell-based; details: YM agar (pH 7.0, Difco), 30°C for 2 days (yeast) or 4 days (filamentous fungi), read-out: MICs, Saccharomyces cerevisiae A25803
Experimental: as §1

[5] = tested on: Trichophyton rubrum A26761; experiment: as above; type: cell-based; details: A26761, YM agar (pH 7.0, Difco), 30°C for 2 days (yeast) or 4 days (filamentous fungi), read-out: MICs, Trichophyton rubrum A26761
Experimental: as §1

[6] = tested on: Candida tropicalis A25809; experiment: as above; type: cell-based; details: YM agar (pH 7.0, Difco), 30°C for 2 days (yeast) or 4 days (filamentous fungi), read-out: MICs, Candida tropicalis A25809
Experimental: as §1

[7] = tested on: Cryptococcus neoformans A15053; experiment: as above; type: cell-based; details: A15053, YM agar (pH 7.0, Difco), 30°C for 2 days (yeast) or 4 days (filamentous fungi), read-out: MICs, Cryptococcus neoformans A15053
Experimental: as §1

FA21436 = experiment: In vitro antifungal activity, serial agar dilution method (Table 1); type: cell-based, Asoergukkys flavus; details: Sabouraud dextrose agar (pH 7.0); 28°C for 40 hours; read-out: MIC, Asoergukkys flavus FA21436
Experimental: as §1, with “(MIC). Table 1. [table]” for “(MIC).”

CN[C@@H]1[C@H](O[C@@H]2OC[C@@H](O)[C@H](O)[C@H]2O)[C@@H](O)[C@H](O[C@H]2c3cc(C)c(C(=O)N[C@H](C)C(=O)O)c(O)c3-c3c(cc4c(c3O)C(=O)c3cc(OC)cc(O)c3C4=O)[C@@H]2O)O[C@@H]1C [Pradimicin A, reference compound]
MIC [1]: > 50 mg/L
MIC [2]: 1.6 mg/L (≈ 1.9 µM)
MIC [3]: 3.2 mg/L (≈ 3.81 µM)
MIC [4]: 0.8 mg/L (≈ 0.951 µM)
MIC [5]: 6.3 mg/L (≈ 7.49 µM)
MIC [6]: 1.6 mg/L (≈ 1.9 µM)
MIC [7]: 0.4 mg/L (≈ 0.476 µM)
MIC (FA21436): 6.3 mg/L (≈ 7.49 µM)

From patent EP0428132A1, “Pradimicin derivatives” (Bristol-Myers Squibb Company, priority 1989, dated 1991)
